Assay results from patent US7544805B2 (Chemagis Ltd., priority 2004, dated 2009).

Tests used:
[1] = Bulk density of the residue; format: physicochemical; settings: residue after drying
Excerpt: The solution was then freeze dried (lyophilized), producing a residue with a bulk density of 0.061 gram/cm^3.
The solution was then spray-dried, producing a residue with a bulk density of 0.269 gram/cm^3.

[2] = Retention of amorphous character after pressing (powder X-ray diffraction); format: physicochemical; settings: pressed at 10,000 Kg/cm^3 for 1 minute; X-ray diffractogram
Procedure: X-ray diffraction data were acquired using a PHILIPS X-ray diffractometer model PW1050-70. System description: Kα1=1.54178 Å, voltage 40 kV, current 28 mA, diversion slit=1°, receiving slit=0.2 mm, scattering slit=1° with a Graphite monochromator. Experiment parameters: pattern measured between 2θ=4° and 2θ=30° with 0.05° increments; count time was 0.5 second per increment.
The X-ray analysis of the residue gave a featureless diffractogram with a broad peak centered at 2θ about 22°, showing the residue was amorphous. The residue was pressed at 10,000 Kg/cm^3 for 1 minute.
The residue was then pressed at 10,000 Kg/cm3 for 1 minute.

bulk density [1] [gram/cm^3] | amorphous character after pressing [2] | Compound
0.061 |  | CC(C)(O)c1ccccc1CC[C@@H](SCC1(CC(=O)[O-])CC1)c1cccc(/C=C/c2ccc3ccc(Cl)cc3n2)c1.[Na+] [Reference Example 1, Amorphous Montelukast Sodium, reference compound]
0.269 | remained amorphous | CC(C)(O)c1ccccc1CC[C@@H](SCC1(CC(=O)[O-])CC1)c1cccc(/C=C/c2ccc3ccc(Cl)cc3n2)c1.[Na+] [Example 1, Amorphous Montelukast Sodium]
